Earlier results on 1 compound are cited in patent publication US7087611B2, “Preparation of an anhydrate form of 5-[2-[4-(1,2-benzisothiazol-3-yl)-1-piperazinyl]ethyl]-6-chloro-1,3-dihydro-2H-indol-2-one hydrochloride (ziprasidone hydrochloride)” (Apotex Pharmachem Inc., priority 2004, dated 2006).

Counter-ions that a name gives are not always drawn.

The conditions of data set [1]: crystalline monohydrate form; as stated in U.S. Pat. No. 5,312,925.
For data set [2] the following is noted: crystalline monohydrate form; background statement.

Take `O=C1Cc2cc(CCN3CCN(c4nsc5ccccc45)CC3)c(Cl)cc2N1` [ziprasidone hydrochloride monohydrate]: the hygroscopic stability result in data set [1] is on record as “substantially hygroscopically stable”. Also, in data set [2], the aqueous solubility entry was “very low”.
